From publication PMC9110388, “Integrative structure determination reveals functional global flexibility for an ultra-multimodular arabinanase” (Communications Biology, 2022)

Target: T1, AbnA-WT (Geobacillus stearothermophilus, UniProt B3EYN2)
T1 sequence (B3EYN2 29-848): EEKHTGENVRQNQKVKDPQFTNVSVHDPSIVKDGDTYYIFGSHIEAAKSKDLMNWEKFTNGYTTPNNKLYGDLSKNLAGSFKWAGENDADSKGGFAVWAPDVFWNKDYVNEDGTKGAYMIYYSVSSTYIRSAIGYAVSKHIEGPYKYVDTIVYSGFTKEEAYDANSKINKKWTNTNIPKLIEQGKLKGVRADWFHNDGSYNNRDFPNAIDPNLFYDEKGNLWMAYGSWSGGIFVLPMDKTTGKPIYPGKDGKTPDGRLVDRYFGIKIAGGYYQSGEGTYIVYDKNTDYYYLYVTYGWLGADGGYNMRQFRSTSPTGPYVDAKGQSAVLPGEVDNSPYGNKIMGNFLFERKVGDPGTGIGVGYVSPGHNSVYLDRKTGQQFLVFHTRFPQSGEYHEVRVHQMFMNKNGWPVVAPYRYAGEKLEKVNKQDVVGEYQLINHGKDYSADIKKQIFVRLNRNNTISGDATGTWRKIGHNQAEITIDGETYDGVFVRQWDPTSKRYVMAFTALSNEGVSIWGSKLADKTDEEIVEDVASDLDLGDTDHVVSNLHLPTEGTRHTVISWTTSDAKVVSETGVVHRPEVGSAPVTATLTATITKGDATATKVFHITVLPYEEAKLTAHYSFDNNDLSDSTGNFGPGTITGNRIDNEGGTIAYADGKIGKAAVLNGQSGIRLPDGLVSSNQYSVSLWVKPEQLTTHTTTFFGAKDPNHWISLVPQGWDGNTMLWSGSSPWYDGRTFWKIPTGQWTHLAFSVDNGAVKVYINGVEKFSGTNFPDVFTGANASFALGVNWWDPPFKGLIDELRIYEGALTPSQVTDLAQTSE
Assay: X-ray crystal structure, soaked crystal, […] A
Type: binding
Details: bound in Domain4 (CBM-like) cleft, not in the active site; 5 mM soak ~30 s; 70% occupancy

OC[C@@H]1O[C@@H](OC[C@@H]2O[C@@H](OC[C@@H]3O[C@@H](OC[C@@H]4O[C@@H](OC[C@@H]5OC(O)[C@H](O)[C@H]5O)[C@H](O)[C@H]4O)[C@H](O)[C@H]3O)[C@H](O)[C@H]2O)[C@H](O)[C@H]1O (stereo partly shown) [A5, arabinopentaose]
X-ray crystal structure, soaked crystal, 2.95 A: extra density was observed in Domain4, and this could be clearly modelled as an arabinopentaose molecule
